Columns and labels:
[1] = tested on: HIV; settings: cited from earlier work
[2] = target: T1, Recombinant MDH (Apium graveolens, UniProt Q38707); experiment: Relative reaction rates of substrates with recombinantly expressed MDH (NADH measured spectrophotometrically); assay type: biochemical; settings: MDH expressed recombinantly; D-mannitol = 100%
T1 construct: An MDH gene was synthetically constructed for expression E. coli; made in house; host or cells: E. coli BL21, pTTQ18 plasmid
Description: (§1) Many different variables were studied to maximize the expression and activity of MDH. MDH activity was monitored with the conversion of D-mannitol to D-mannose in the presence of NAD. The conversion was monitored spectrophotometrically by measuring the increasing concentration of NADH, the cofactor product of the oxidation of mannitol to mannose. For a given experiment, lysate protein concentrations were normalized.
(§2) Substrate specificity of the recombinant MDH was also tested and compared with the published data on the natively expressed MDH. Recombinant expression of MDH in E. coli could cause subtle modifications to the tertiary structure of MDH and modify the substrate specificity. Several known substrates of the MDH were tested.[16]

[3] = tested on: E. coli production strain with inactive PEP-dependent phosphotransferase system; experiment: Polyol conversion in shake flasks by mutagenized PTS-inactive E. coli MDH strain, HPLC; assay type: cell-based
Description: This can be accomplished by PCR-based genetic deletion of phosphocarrier protein ptsH, phosphotransferase system enzyme I ptsI, and the glucose specific enzyme IIA PTS component crr, but could be accomplished by other genetic manipulation including deletion of the polyol specific PTS type II genes or other genetic or biochemical manipulation known to those skilled in the art. These mutations render the production strain unable to metabolize or phosphorylatively uptake D-mannitol, galactitol, or D-sorbitol.
Flasks contained LB, ampicillin, 250 μM ZnCl2, and 40 g/L galactitol, D-mannitol, or D-sorbitol. Cells were induced with 0.5 mM IPTG after 4 hrs growth at 37° C. and the temperature was reduced to 25° C. After 6 days of incubation, D-mannose had been created from D-mannitol with 12% conversion. D-sorbitol conversion to L-gulose ceased after 7 days with a final conversion of 12%. Following 14 days of reaction, L-galactose had been produced from galactitol with 40% conversion. The final products were characterized by non-chiral HPLC in comparison to their D-counterparts. Optical rotation was obtained by polarimetry and used to verify stereochemistry. This resulting strain is further capable of converting D-arabitol to D-lyxose at 24% conversion.

[4] = target: T2, Native MDH (Apium graveolens, UniProt Q38707); settings: MDH expressed natively; D-mannitol = 100%; published data; cited from earlier work
T2 construct: compared with the published data on the natively expressed MDH; host or cells: celery (Apium graveolens), native expression

[5] = tested on: recombinant E. coli MDH strain; experiment: Polyol bioconversion by the recombinant E. coli MDH strain, HPLC; assay type: cell-based; settings: strain with active phosphotransferase uptake system
Description: It was hypothesized that the lack of conversion was due to the phosphotransferase uptake system for D-mannitol, galactitol, and D-sorbitol, which phosphorylates these polyols upon uptake.

[6] = target: T3, Recombinant MDH (Apium graveolens, UniProt Q38707, C47S/T120I); experiment: Relative reaction rates of substrates with recombinantly expressed MDH (NADH measured spectrophotometrically); assay type: biochemical; settings: recombinant MDH
T3 construct: An MDH gene was synthetically constructed for expression E. coli; made in house; host or cells: E. coli BL21, pTTQ18 plasmid
Description: as §1, §2

[7] = target: T4, Apium gravelons mannitol-1-dehydrogenase (MDH) (Apium graveolens, UniProt Q38707, C47S/T120I); experiment: MDH activity in lysate with added divalent metal salts; assay type: biochemical
T4 construct: An MDH gene was synthetically constructed for expression E. coli; made in house; host or cells: E. coli BL21, pTTQ18 plasmid
Description: While not explicitly described in the literature, Apium gravelons mannitol-1-dehydrogenase (MDH) requires divalent metal ions, particularly Zn^2+ ions, for activity. The presence of ZnSO4 increases MDH activity. Cells expressing MDH were grown in rich media were harvested and lysed with BUGBUSTER® protein extraction reagent, Novagen, Madison, Wis. MDH activity was then tested with increasing concentrations of ZnSO4 in the presence of D-mannitol and NAD cofactor at pH 9.0. See, FIG. 11.

[8] = tested on: recombinant E. coli expressing MDH; experiment: Effect of Zn2+ on L-ribose production from ribitol; assay type: cell-based; settings: LB, 100 g/L ribitol, 0.5% glycerol
Description: The cultures are analyzed for production of L-ribose vs. time. The optimum production of L-ribose occurs between 0.15 and 1.5 mM Zn^2+ with the best conversion at 0.5 mM ZnCl2 (FIG. 14).

[9] = pH profile of MDH oxidation activity; assay type: biochemical; settings: relative to maximum at pH 9.0
Description: as §1
The pH profile for MDH for the oxidation reactions was also tested. […] This range could be beneficial for in vitro bioconversions with enzymatic NAD cofactor recycling methods. Increasing the activity of MDH at neutral pH could improve in vivo fermentation activity as the interior of the E. coli cell has a pH lower than 9.0.[21]

[10] = Thermostability of recombinant MDH in lysates; assay type: physicochemical; settings: after four hours of incubation at various temperatures, except at 25° C.
Description: The thermostability of recombinant MDH was also tested. Lysates containing MDH were incubated at various temperatures. Aliquots of MDH were removed at various times to measure MDH activity using the assay described above. See, FIG. 13.

[11] = MDH thermal stability: incubation at 43° C. followed by kinetic assay; assay type: physicochemical; settings: relative to WT
[12] = Fermentation of ribitol to L-ribose with wild-type MDH in E. coli; assay type: cell-based
Description: Because of the successes with the expression of MDH in E. coli, additional experiments were performed to determine the feasibility of the MDH system to produce L-ribose with MDH enzyme. Initial fermentation experiments were performed in shake-flasks using rich media and varying concentrations of ribitol. With 2% ribitol (w/v), the MDH-expressing strain converted approximately 25% of the ribitol to L-ribose with 48 hrs. The goal for this strain would be to have >90% conversion within 24-48 hrs.
One goal for the fermentation would be the synthesis of 100-150 g·L^−1 of L-ribose in 24-48 hrs with >90% conversion efficiency from ribitol. Initial fermentation results with the wild-type MDH show a productivity of approximately 35 g·L^−1 in 48 hrs with 30% ribitol converted.

For `Nc1ccn(C2CSC(CO)O2)c(=O)n1` (racemic) [BCH-189, (±)-2,3-dideoxy-3′-thiacytidine], the anti-HIV activity [1] is given as “anti-HIV activity”.

In the case of `OC[C@@H](O)C(O)[C@H](O)CO` [D-Arabitol], the “Relative reaction rates, Recombinant MDH” value [2] is given as 33%, the “conversion of D-arabitol to D-lyxose” value [3] is given as 24% and the “Relative reaction rates, Native MDH” value [4] is given as 37%.

With `OC[C@@H](O)[C@@H](O)[C@H](O)[C@H](O)CO` [D-Mannitol] the “Relative reaction rates, Recombinant MDH” value [2] was 100%, the “conversion of polyol to sugar detected by HPLC” value (from here on “conversion of polyol”) [5] was “none was detected” and the “conversion of D-mannitol to D-mannose” value ([3]; 40 g/L polyol, 25° C., after 6 days) was 12%. For the same molecule, the “Relative reaction rates, Native MDH” value [4] was 100%.

In the case of `OC[C@@H](O)[C@@H](O)[C@H](O)[C@@H](O)CO` [D-Sorbitol], the “Relative reaction rates, Recombinant MDH” value [2] is reported as 5%, the “conversion of polyol” value [5] is reported as “none was detected” and the “final conversion of D-sorbitol to L-gulose” value ([3]; 40 g/L polyol, 25° C., ceased after 7 days) is reported as 12%. The “Relative reaction rates, Native MDH” value [4] was 22%.

For `OC[C@@H](O)[C@@H](O)CO` [Erythritol], the “Relative reaction rates, Recombinant MDH” value [2] is listed as 4% and the “Relative reaction rates, Native MDH” value [4] is listed as 16%.

In the case of `C[C@H](O)[C@@H](O)[C@@H](O)[C@H](O)CO` [L-fucitol], the “relative reaction rate, % the rate of D-mannitol” value [6] is reported as 10.5%.

In the case of `O=S(=O)([O-])[O-].[Ni+2]` [NiSO4], the “inhibition of MDH activity compared to MDH without NiSO4” value ([7]; 0.1 mM NiSO4) is reported as “approximately 50%”.

In the case of `OC[C@@H](O)[C@@H](O)[C@@H](O)CO` [Ribitol], the “Relative reaction rates, Recombinant MDH” value [2] is listed as 50% and the “Relative reaction rates, Native MDH” value [4] is listed as 36%.

In the case of `Nc1ccn([C@@H]2CS[C@H](CO)O2)c(=O)n1` [Strain L-3TC], the “potency compared with the D-form of BCH-189” value [1] is listed as “more potent”.

For `OC[C@@H](O)[C@H](O)[C@@H](O)CO` [Xylitol], the “Relative reaction rates, Recombinant MDH” value [2] is given as 1% and the “Relative reaction rates, Native MDH” value [4] is given as 0%.

With `[Cl-].[Cl-].[Zn+2]` [ZnCl2] the “ZnCl2 concentration of best conversion” value [8] was 0.5 mM.

With `O=S(=O)([O-])[O-].[Zn+2]` [Zn^2+] the “concentrations showing inhibition of MDH activity” value ([7]; D-mannitol, NAD, pH 9.0) was “above 1 μM” and the “increase of MDH activity compared to no added zinc” value ([7]; addition of 1 μM Zn2+, D-mannitol, NAD, pH 9.0) was 50%.

For `OC[C@@H](O)[C@H](O)[C@H](O)[C@@H](O)CO` [galactitol], the “conversion of polyol” value [5] was “none was detected” and the “conversion of galactitol to L-galactose” value ([3]; 40 g/L polyol, 25° C., 14 days) was 40%.

B1: MDH: NAD-dependent mannitol-1-dehydrogenase from Apium graveolens, SEQ ID NO:2, wild type, expressed in E. coli (protein)
chain: MAKSSEIEHPVKAFGWAARDTTGLLSPFKFSRRATGEKDVRLKVLFSGVCHSDHHMIHNNWGFTTYPIVPGHEIVGVVTEVGSKVEKVKVGDNVGIGCLVGSCRSCESCCDNRESHCENIIDTYGSIYFDGTMTHGGYSDTMVADEHFILRWPKNLPLDSGAPLLCAGITTYSPLKYYGLDKPGTKIGVVGLGGLGHVAVKMAKAFGAQVTVIDISESKRKEALEKLGADSFLLNSDQEQMKGARSSLDGIIDTVPVNHPLAPLFDLLKPNGKLVMVGAPEKPFELPVFSLLKGRKLLGGTINGGIKETQEMLDFAAKHNITADVEVIPMDYVNTAMERLVKSDVRYRFVIDIANTMRTEESLGA
In the case of B1, the “residual activity at pH 7.0” value [9] is reported as 10%, the “loss of MDH activity on incubation of lysates” value [10] is reported as “Most MDH activity was lost” and the “Ratio T1/2” value [11] is reported as 1.0. For the same molecule, the “ribitol converted to L-ribose” value ([12]; 2% ribitol (w/v), shake-flask, 48 hrs) was “approximately 25%”, the ribitol converted ([12]; 48 hrs) was 30% and the “productivity of L-ribose” value ([12]; in 48 hrs, unoptimized E. coli strain) was “approximately 35 g·L^−1”.

Reference: patent US20120021468A1, “PRODUCTION OF L-RIBOSE AND OTHER RARE SUGARS” (ZUCHEM, INC., priority 2008, published 2012)
